Values quoted from earlier work in publication PMC12120261, “Responsiveness of different MET tumour alterations to type I and type II MET inhibitors” (Clinical and Translational Medicine, 2025).

System: MET G1163R
Set-up: method as in PMID 31279006

SMILES	sensitivity of the solvent front G1163R mutation
CNC(=O)c1ccc(-c2cnc3ncc(Cc4ccc5ncccc5c4)n3n2)cc1F [capmatinib]	remains sensitive
C[C@@H](Oc1cc(-c2cnn(C3CCNCC3)c2)cnc1N)c1c(Cl)ccc(F)c1Cl [crizotinib, Crizotinib]	conferring resistance
C[C@@H](c1ccc2nccn2c1)n1nnc2ncc(-c3cnn(C)c3)nc21 [savolitinib]	remains sensitive
